The text below walks through data of paper PMC13233820, “Recruitment of Mre11 to recombination sites during meiosis” (Nature Communications, 2026).

In one experiment the test system is MRX condensates. It counts as biochemical, Saccharomyces cerevisiae. Conditions: 5% 1,6-hexanediol, ten-minute treatment. As for the experimental part:
Experiments were performed without PEG. b, d Effect of DNase I, in the absence of PEG, on (b) Mre11 (n = 9 (no treatment) and 11 (DNase I)) and (d) MRX (n = 9 (no treatment) and 11 (DNase I)) condensates. Condensates were pre-assembled for 20 min with 5.7 nM pUC19 prior to challenge. Quantification represents total foci intensity (green) in a field of view and total number of foci per 1000 µm^2 (magenta). Foci intensity is normalized to the mean intensity of samples with DNA for (a, c) and untreated samples for (b, d). Error bars represent mean ± SD from the indicated (n) fields of view. e, f Effect of the presence of 5% PEG-3350 on (e) Mre11 (n = 12) and (f) MRX (n = 11) condensate formation. Quantification represents total foci intensity (green) in a field of view (normalized to the mean of + PEG images) and total number of foci per 1000 µm^2 (magenta). Error bars represent mean ± SD from the indicated (n) fields of view. g–j Effect of challenge with 5% 1,6-hexanediol and 0.5 M NaCl on (g, h) Mre11 and (i, j) MRX condensates. Condensates were assembled for 20 min prior to challenge and incubated for 15 min and 10 min, respectively, after challenge. […]
(§1) Proteins were diluted to a 10 × stock of their appropriate working concentrations in their respective storage buffers. […] Images were analyzed with ImageJ using a custom-made script. […] Data were analyzed using Graphpad Prism 10.4.0.

The subject of another experiment is meiotic Mre11^myc foci. In words: Immunofluorescence of meiotic Mre11myc foci, yeast nuclear spreads. The class given is cell-based, Saccharomyces cerevisiae. Particulars: brief exposure to 1,6-hexanediol, prophase I spreads. Here is the method: Following standard protocols, strains were patched on YPG plates, mated and streaked on YPD plates, and selected diploid colonies grown in liquid YPD at 30 °C, 250 rpm, overnight. For meiotic synchronization, diploid cultures grown overnight in YPD were transferred to YPA (1% yeast extract, 2% peptone, 1% potassium acetate) at OD600 0.2 and grown for 12–14 h at 30 °C, 250 rpm. Once the cultures reached OD600 between 1.2–1.6, cells were washed once with prewarmed sterile water and immediately transferred to sporulation medium supplemented with amino acids (320 µL amino acid complementation media for 100 mL of sporulation media (SPM)) and were kept shaking at 30 °C, 250 rpm during the entire meiotic time-course. For MMS and CPT (Sigma) sensitivity assays, serial dilutions of overnight cultures were spotted on freshly prepared YPD-MMS or YPD-CPT plates containing the indicated percentage of MMS or CPT, respectively. […]
(§2) Slides were blocked with 90% FBS, 1 × PBS for 1 h at room temperature in a humid chamber and then incubated with primary antibody (mouse mAb anti-myc, 1:200 (2276S, Cell Signaling Technology), rabbit anti-phospho H2A-S129, 1:200 (ab15083, abcam)) diluted in 3% BSA, 1 × PBS in a humid chamber for 2 h at 37 °C or overnight at 4 °C. […] Images were captured on a Zeiss Axio Observer with a 100 ×/1.4 NA oil immersion objective and were analyzed in ImageJ.

A further experiment has as its system Mre11 condensates. It counts as biochemical, Saccharomyces cerevisiae. Particulars: 5% 1,6-hexanediol, ten-minute treatment. Here is the method:
Experiments were performed without PEG. b, d Effect of DNase I, in the absence of PEG, on (b) Mre11 (n = 9 (no treatment) and 11 (DNase I)) and (d) MRX (n = 9 (no treatment) and 11 (DNase I)) condensates. Condensates were pre-assembled for 20 min with 5.7 nM pUC19 prior to challenge. Quantification represents total foci intensity (green) in a field of view and total number of foci per 1000 µm^2 (magenta). Foci intensity is normalized to the mean intensity of samples with DNA for (a, c) and untreated samples for (b, d). Error bars represent mean ± SD from the indicated (n) fields of view. e, f Effect of the presence of 5% PEG-3350 on (e) Mre11 (n = 12) and (f) MRX (n = 11) condensate formation. Quantification represents total foci intensity (green) in a field of view (normalized to the mean of + PEG images) and total number of foci per 1000 µm^2 (magenta). Error bars represent mean ± SD from the indicated (n) fields of view. g–j Effect of challenge with 5% 1,6-hexanediol and 0.5 M NaCl on (g, h) Mre11 and (i, j) MRX condensates. […] In the control reaction, an equivalent volume (1/20) of water was added instead of hexanediol. […]
as §1

The subject of experiment [1] is MMS-induced Mre11^myc foci in vegetatively growing yeast. In words: Immunofluorescence of MMS-induced Mre11myc foci, vegetative yeast nuclear spreads. The class given is cell-based, Saccharomyces cerevisiae. Here is the method: Following standard protocols, strains were patched on YPG plates, mated and streaked on YPD plates, and selected diploid colonies grown in liquid YPD at 30 °C, 250 rpm, overnight. For meiotic synchronization, diploid cultures grown overnight in YPD were transferred to YPA (1% yeast extract, 2% peptone, 1% potassium acetate) at OD600 0.2 and grown for 12–14 h at 30 °C, 250 rpm. Once the cultures reached OD600 between 1.2–1.6, cells were washed once with prewarmed sterile water and immediately transferred to sporulation medium supplemented with amino acids (320 µL amino acid complementation media for 100 mL of sporulation media (SPM)) and were kept shaking at 30 °C, 250 rpm during the entire meiotic time-course. For MMS and CPT (Sigma) sensitivity assays, serial dilutions of overnight cultures were spotted on freshly prepared YPD-MMS or YPD-CPT plates containing the indicated percentage of MMS or CPT, respectively. Plates were grown for two days at 30 °C. For immunofluorescence of vegetatively growing cells, overnight cultures were refreshed by diluting to OD600 0.2 and grown for 3-4 hours to reach OD600 1.2–1.4 before subjecting to MMS or MMS followed by 5% 1,6-hexanediol treatment. For 5% 1,6-hexanediol treatment, cells were first converted to spheroplasts and then treated with 5% 1,6-hexanediol for 4-5 min. Spheroplasts were then immediately washed, lysed, and fixed using the protocol described below.
Meiotic cultures were harvested 4 h after transfer to SPM, washed with sterile cold water, and resuspended in 1 M sorbitol, 1 × PBS (pH 7), 10 mM DTT, 0.5 mg/ml zymolyase 20 T, and incubated for 30 mins at 30 °C with gentle shaking. […]
as §2

The subject of the next experiment is HisSUMO-Mer2 (wild type). In words: Co-expression pull-down assay (NiNTA, anti-MBP immunoblot). It counts as binding, Saccharomyces cerevisiae. Particulars: co-expressed in E. coli. As for the experimental part: Wild-type and mutant MBP-tagged Mre11-C49 and HisSUMO-tagged Mer2 were co-expressed in 50 mL of E. coli BL21 cultures and purified by affinity chromatography on Ni-NTA resin following a procedure similar to that described above. Briefly, cells were lysed by sonication and centrifuged at maximum speed for 30 mins at 4 °C on a table-top centrifuge. A small fraction of the supernatant was collected as ‘Input’ and the remainder was incubated with 120 µL Ni-NTA resin, pre-equilibrated with wash buffer (25 mM HEPES pH 7.5, 20 mM imidazole, 0.1 mM DTT, 0.1 mM PMSF, 10% glycerol), for 1 hour on a rotating wheel at 4 °C. The resin was washed twice with 2 ml in batch and five times with 2 ml on column before eluting with 250 µL of 500 mM imidazole in wash buffer. Input and elution fractions were separated by SDS-PAGE followed by immunoblotting with primary murine anti-MBP monoclonal antibody at 1:10,000 dilution (E8032S, NEB) and secondary goat anti-mouse IgG-HRP conjugated at 1:10,000 dilution (AP308P, Chemicon).

The next experiment concerns Mer2 condensates. In words: Colocalization of fluorescently-labeled Mer2 and Mre11 condensates. The class given is binding, Saccharomyces cerevisiae. Conditions: 800 nM mScarlet-Mre11-C49 with 200 nM eGFP-Mer2, 30 min. Here is the method:
Fig. 4 Mer2 recruits Mre11 during meiosis. a Effect of 1,6-hexanediol treatment on meiotic Mre11^myc foci visualized by immunofluorescence analysis of yeast nuclear spreads 4 hours after transfer to SPM. […] At least 22 tetrads were dissected for each strain (n ≥ 88 spores). e Quantification of sub-population of cells showing discrete Mre11 foci and aggregated Mre11 foci in indicated strains. Images used for analysis were from the same experiments in (b) and (d). f Colocalization of fluorescently-labeled Mer2 with wild-type or truncated Mre11. […] The number of images analyzed for each sample were WT (n = 11), Mre11^Δ10-270 (n = 13), Mre11^Δ290-472 (n = 15), Mre11^ΔIDR (n = 10), Mre11^ΔC49 (n = 13). Error bars represent mean ± SD from the indicated (n) fields of view. p-values compared to Mre11-WT are: Mre11^Δ10-270 (0.006), Mre11^Δ290-472 (0.0003), Mre11^ΔIDR (<0.0001), Mre11^ΔC49 (<0.0001). g Colocalization of fluorescently-labeled Mre11-C49 and Mer2. Condensates were assembled by mixing 800 nM of ^mScarletMre11-C49 and 200 nM of ^eGFPMer2 for 30 min prior to imaging. […]
Proteins were diluted to a 10 × stock of their appropriate working concentrations in their respective storage buffers. […] Images were analyzed with ImageJ using a custom-made script. […] Masked foci were counted, and the intensity inside the focus mask was integrated. […] Data were analyzed using Graphpad Prism 10.4.0.

Another experiment deals with Mer2. In words: Yeast two-hybrid. It counts as binding, Saccharomyces cerevisiae. Particulars: SC-Leu-Ura-His + 25 mM 3-AT. As for the experimental part:
Bait and prey plasmids were co-transformed into yWL365 using the standard ‘LiAc’-based transformation and plated on SC-Leu-Ura selective media. At least four independent transformants were tested for Mer2-Mre11 interaction by spotting a dilution series on SC-Leu- Ura-His + 25 mM 3-AT (3-amino-1,2,4-triazole) and growing for 4-5 days at 30 °C.

Another experiment relates to Mer2 coiled-coil. In words: ITC Mre11-C49 / Mer2 coiled-coil. It counts as binding, Saccharomyces cerevisiae. Conditions: Mre11-C49 titrated into Mer2 coiled-coil; peer review file.

Turning to `OCCCCCCO` [1,6-hexanediol], in the experiment on MRX condensates, the “Effect on MRX foci intensity (in words)” value is reported as “strong reduction in foci intensity”. Also, the “Effect on meiotic Mre11 foci (in words)” value in the experiment with meiotic Mre11^myc foci is reported as “disassembles these foci”. Also, the “Effect on Mre11 foci intensity (in words)” value in the experiment on Mre11 condensates is “strong reduction in foci intensity”. For the same molecule, the “Effect on MMS-induced Mre11 foci (in words)” value in experiment [1] (5% 1,6-hexanediol, 4-5 min) is recorded as “readily dissolved MMS-induced foci”. In addition, the Percentage of aggregates in experiment [1] (MMS + 5% 1,6-hexanediol 4-5 min) was 100.
For “SYGLLNGRKTKTKTRSAASTKTASRRGKGRASRTPKTDILGSLLAKKRK [Mre11-C49, Mre11 C-terminal residues 644–692]”, in the experiment on HisSUMO-Mer2 (wild type), the “Interaction with Mer2 in pulldown (in words)” value is “directly binds Mer2”. In the experiment on Mer2 condensates, the “Localization around Mer2 condensates (in words)” value was “forms a halo-like structure around Mer2 condensates”. In the experiment with Mer2, the “Yeast two-hybrid interaction with Mer2 (in words)” value is “not sufficient for Mer2 binding”. For the same molecule, in the experiment on Mer2 coiled-coil, the ITC result is “inconclusive”.
